Results as given in patent publication US8227406B2, “Antimicrobial peptides” (Dermagen AB, priority 2006, dated 2012).

Legend:
[1] = test system: Staphylococcus aureus ATCC29213; experiment: Radial diffusion assay (RDA), S. aureus; type: cell-based; settings: Table 1b; 10 mM Tris Hcl (pH 7.4)
Description: (§1) Peptides. Peptides were from Sigma-Genosys, generated by a peptide synthesis platform (PEPscreen®, Custom Peptide Libraries, SigmaGenosys). Yield was ˜1-6 mg, and peptide length 20 amino acids. MALDI-ToF Mass Spectrometry was perfomed on these peptides. Average Crude Purity of 20mers was ˜60%. Peptides were supplied lyophilized and in a 96-well tube rack. Prior to biological testing the PEPscreen peptides were diluted in dH2O (5 mM stock), and stored at −20 C. This stock solution was used for the subsequent experiments.
(§2) Eschericia coli ATCC25922, Staphylococcus aureus ATCC29213, and the fungal isolate Candida albicans ATCC90028 were obtained from the Department of Bacteriology, Lund University Hospital.
(§3) Radial diffusion assays (RDA) were performed essentially as described earlier (Lehrer, R. I., Rosenman, M., Harwig, S. S., Jackson, R. & Eisenhauer, P. (1991) Ultrasensitive assays for endogenous antimicrobial polypeptides, J Immunol Methods. 137, 167-73). Briefly, bacteria (E. coli, S. aureus) or fungi (C. albicans) were grown to midlogarithmic phase in 10 ml of full-strength (3% w/v) trypticase soy broth (TSB) (Becton-Dickinson, Cockeysville, Md.). The microorganisms were washed once with 10 mM Tris, pH 7.4. 4×10^6 bacterial cfu or 1×10^5 fungal cfu was added to 5 ml of the underlay agarose gel, consisting of 0.03% (w/v) TSB, 1% (w/v) low-electroendoosmosistype (Low-EEO) agarose (Sigma, St Louise Mo.) and a final concentration of 0.02% (v/v) Tween 20 (Sigma). The underlay was poured into a Ø 85 mm petri dish. After agarose solidified, 4 mm-diameter wells were punched and 6 μl of test sample was added to each well. Plates were incubated at 37° C. for 3 hours to allow diffusion of the peptides. The underlay gel was then covered with 5 ml of molten overlay (6% TSB and 1% Low-EEO agarose in dH2O). Antimicrobial activity of a peptide is visualized as a clear zone around each well after 18-24 hours of incubation at 37° C. for bacteria and 28° C. for Candida albicans. Other examples of peptides that were screened and found to show an increased effect against the above mentioned microorgansism are listed below. Some of the results are found in table 1c showing the effects against C. albicans, table 1d E. coli and table 1e S. aureus.

[2] = test system: Eschericia coli ATCC25922; experiment: Radial diffusion assay (RDA), E. coli; type: cell-based, Escherichia coli; settings: Table 1b; 10 mM Tris Hcl (pH 7.4)
Description: as §1, §2, §3

Substance	RDA values (mm) S. aureus ATCC 29213 [1] [mm]	RDA values (mm) E. coli ATCC 25922 [2] [mm]
DDDDDDDDDD [Peptide T59]	0.00	0.00
DDDDDDDDDDWWW [Peptide T60]	0.00	0.00
GKHWWW [Peptide T30]	0.00	3.05
GKKNGKHWWW [Peptide T26]	1.76	7.47
HWWW [Peptide T32]	0.00	0.00
KGKKNGKHWWW [Peptide T25]	2.55	8.87
KHWWW [Peptide T31]	0.00	1.48
KKKKKKKKKK [Peptide T46]	1.32	5.94
KKKKKKKKKKWWW [Peptide T47]	4.46	7.48
KKKKKKKKKWWW [Peptide T48]	7.19	9.26
KKKKKKKKWWW [Peptide T49]	5.48	7.90
KKKKKKKWWW [Peptide T50]	4.90	7.82
KKKKKKWWW [Peptide T51]	4.16	8.12
KKKKKWWW [Peptide T52]	3.43	9.01
KKKKWWW [Peptide T53]	2.85	8.11
KKKWWW [Peptide T54]	2.02	4.93
KKNGKHWWW [Peptide T27]	1.68	7.56
KKWWW [Peptide T55]	1.01	2.95
KNGKHWWW [Peptide T28]	0.00	4.99

Substance	RDA values (mm) S. aureus ATCC 29213 [1] [mm]	RDA values (mm) E. coli ATCC 25922 [2] [mm]
KNKGKKNGKH [Peptide T1]	0.00	2.56
KNKGKKNGKHGSGSPWWW [Peptide T61]	1.52	8.64
KNKGKKNGKHWWW [Peptide T2]	4.23	8.90
KNKGKKNGKHWWW [Peptide T23]	3.26	8.65
KNKGKKNGKHWWWWW [Peptide T13]	5.58	7.93
KNKGKKNGKWWW [Peptide T3]	4.07	9.16
KNKGKKNGKWWWWW [Peptide T14]	5.07	7.90
KNKGKKNGWWWWW [Peptide T15]	3.90	8.03
KNKGKKNWWW [Peptide T5]	2.85	8.36
KNKGKKNWWWWW [Peptide T16]	3.83	9.09
KNKGKKWWW [Peptide T6]	2.79	8.16
KNKGKKWWWWW [Peptide T17]	3.88	8.98
KNKGKWWW [Peptide T7]	0.00	6.84
KNKGKWWWWW [Peptide T18]	1.82	8.21
KNKGWWW [Peptide T8]	0.00	2.94
KNKGWWWWW [Peptide T19]	1.10	4.49
KNKWWW [Peptide T9]	0.00	2.73
KNKWWWWW [Peptide T20]	0.55	4.22
KNWWW [Peptide T10]	0.00	2.69

Substance	RDA values (mm) S. aureus ATCC 29213 [1] [mm]	RDA values (mm) E. coli ATCC 25922 [2] [mm]
KNWWWWW [Peptide T21]	0.00	1.70
KWWW [Peptide T11]	0.00	0.00
KWWW [Peptide T56]	0.75	4.48
KWWWWW [Peptide T22]	0.00	2.18
NGKHWWW [Peptide T29]	0.00	0.00
NKGKKNGKHWWW [Peptide T24]	2.41	8.44
SNSGSSNGSH [Peptide T43]	0.00	0.00
SNSGSSNGSHWWW [Peptide T44]	0.00	0.00
SSSSSSSSSS [Peptide T57]	0.00	0.00
SSSSSSSSSSWWW [Peptide T58]	0.00	0.00
WWW [Peptide T12]	0.00	0.00
WWWK [Peptide T42]	0.00	0.00
WWWKN [Peptide T41]	0.00	0.00
WWWKNK [Peptide T40]	0.00	0.00
WWWKNKG [Peptide T39]	0.00	0.00
WWWKNKGK [Peptide T38]	0.00	1.42
WWWKNKGKK [Peptide T37]	0.11	3.28
WWWKNKGKKN [Peptide T36]	0.66	5.04
WWWKNKGKKNG [Peptide T35]	0.00	1.57
